Counter-ions that a name gives are not always drawn.
Legend:
KRas G12D [1] = target: T1, KRas G12D (Homo sapiens (Human), UniProt P01116, G12D); test: KRas G12D Surface Plasmon Resonance (SPR) Binding Assay; conditions: Biacore T200, immobilized biotinylated KRAS protein, 1:1 binding model
Target sequence in this assay (P01116-2 other isoform, or with tags, fused parts or gaps G12D): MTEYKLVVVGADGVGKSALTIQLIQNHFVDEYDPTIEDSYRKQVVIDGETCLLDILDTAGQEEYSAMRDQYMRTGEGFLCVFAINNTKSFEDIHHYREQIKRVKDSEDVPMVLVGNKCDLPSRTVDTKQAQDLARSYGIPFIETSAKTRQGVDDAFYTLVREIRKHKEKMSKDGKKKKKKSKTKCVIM

KRas G12D [2] = target: T1, KRas G12D; test: KRas G12D Binding Assay (TR-FRET displacement of Cy5 labelled tracer); conditions: GDP-loaded KRAS G12D (amino acids 1:169), 60 minute incubation at 22° C.
Protocol: After a 60 minute incubation at 22° C., the reaction was measured using a PerkinElmer EnVision multimode plate reader via TR-FRET dual wavelength detection, and the percent of control (POC) calculated using a ratiometric emission factor. […] The POC values were fit to a 4-parameter logistic curve and the IC50 value was determined as the concentration where the curve crosses 50 POC.
ND stands for “not determined.”
Target sequence in this assay (P01116 other isoform, or with tags, fused parts or gaps G12D): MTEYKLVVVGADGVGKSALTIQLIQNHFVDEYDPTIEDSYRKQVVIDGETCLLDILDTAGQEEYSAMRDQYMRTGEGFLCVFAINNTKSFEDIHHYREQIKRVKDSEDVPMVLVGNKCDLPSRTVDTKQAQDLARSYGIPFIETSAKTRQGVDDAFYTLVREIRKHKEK

SMILES	Kd (KRas G12D [1]) [nM]	IC50 (KRas G12D [2]) [nM]
CN1CCC[C@H]1COc1nc(N2CC3CCC(Cl)(C2)N3)c2cnc(-c3cc(O)cc4ccccc34)c(F)c2n1 (stereo partly drawn) [Example 160, 4-(4-(1-chloro-3,8-diazabicyclo[3.2.1]octan-3-yl)-8-fluoro-2-(((S)-1-methylpyrrolidin-2-yl)methoxy)pyrido[4,3-d]pyrimidin-7-yl)naphthalen-2-ol bis(2,2,2-trifluoroacetate)]	0.3	120
Cn1ccnc1CCOc1nc(N2C[C@H]3CC[C@@H](C2)N3)c2cnc(-c3cccc4cccc(Cl)c34)c(F)c2n1 [Example 114, 4-((I R,5S)-3,8-diazabicyclo[3.2.1]octan-3-yl)-7-(8-chloronaphthalen-1-yl)-8-fluoro-2-(2-(1-methyl-1H-imidazol-2-yl)ethoxy)pyrido[4,3-d]pyrimidine]	384	482
Oc1cc(-c2ncc3c(N4C[C@H]5CC[C@@H](C4)N5)nc(OC[C@@H]4CC5CCN4C5)nc3c2F)c2ccccc2c1 [Example 40, 4-(2-(((2S)-1-azabicyclo[2.2.1]heptan-2-yl)methoxy)-4-((1R,5S)-3,8-diazabicyclo[3.2.1]octan-3-yl)-8-fluoropyrido[4,3-d]pyrimidin-7-yl)naphthalen-2-ol]	1.7	4
COCCCOc1nc(N2C[C@H]3CC[C@@H](C2)N3)c2cnc(-c3cc(O)cc4ccccc34)c(F)c2n1 [Example 68, 4-(4-((1R,5S)-3,8-diazabicyclo[3.2.1]octan-3-yl)-8-fluoro-2-(3-methoxypropoxy)pyrido[4,3-d]pyrimidin-7-yl)naphthalen-2-ol]	293	257
Cn1cnc(COc2nc(N3C[C@H]4CC[C@@H](C3)N4)c3cnc(-c4cc(O)cc5ccccc45)c(F)c3n2)c1 [Example 9, 4-(4-((1R,5S)-3,8-diazabicyclo[3.2.1]octan-3-yl)-8-fluoro-2-((1-methyl-1H-imidazol-4-yl)methoxy)pyrido[4,3-d]pyrimidin-7-yl)naphthalen-2-ol]	259	821
CN1CCC[C@H]1COc1nc(N2C[C@H]3CC[C@@H](C2)N3)c2cnc(-c3cccc4c3CCCC4)c(F)c2n1 [Example 21, 4-((1R,5S)-3,8-diazabicyclo[3.2.1]octan-3-yl)-8-fluoro-2-(((S)-1-methylpyrrolidin-2-yl)methoxy)-7-(5,6,7,8-tetrahydronaphthalen-1-yl)pyrido[4,3-d]pyrimidine]	448	263
COc1nc(N2C[C@H]3CC[C@@H](C2)N3)c2cnc(-c3cccc4cccc(C)c34)c(F)c2n1 [Example 317, 4-((1R,5S)-3,8-diazabicyclo[3.2.1]octan-3-yl)-8-fluoro-2-methoxy-7-(8-methylnaphthalen-1-yl)pyrido[4,3-d]pyrimidine]	91300	> 10000
Cc1cccc2cccc(-c3cc4nc(OC[C@@H]5CCCN5C)nc(N5C[C@H]6CC[C@@H](C5)N6)c4cn3)c12 [Example 116, 4-((1R,5S)-3,8-diazabicyclo[3.2.1]octan-3-yl)-7-(8-methylnaphthalen-1-yl)-2-(((S)-1-methylpyrrolidin-2-yl)methoxy)pyrido[4,3-d]pyrimidine]	3630	1440
CN1C[C@H](F)C[C@H]1COc1nc(N2C[C@H]3CC[C@@H](C2)N3)c2cnc(-c3cccc4cccc(Cl)c34)c(F)c2n1 [Example 115, 4-((1R,5S)-3,8-diazabicyclo[3.2.1]octan-3-yl)-7-(8-chloronaphthalen-1-yl)-8-fluoro-2-(((2S,4R)-4-fluoro-1-methylpyrrolidin-2-yl)methoxy)pyrido[4,3-d]pyrimidine]	333000	174
Cn1cncc1CCOc1nc(N2C[C@H]3CC[C@@H](C2)N3)c2cnc(-c3cc(O)cc4ccccc34)c(F)c2n1 [Example 110, 4-(4-((1R,5S)-3,8-diazabicyclo[3.2.1]octan-3-yl)-8-fluoro-2-(2-(1-methyl-1H-imidazol-5-yl)ethoxy)pyrido[4,3-d]pyrimidin-7-yl)naphthalen-2-ol]	42.3	57.5
Cn1ccc(COc2nc(N3C[C@H]4CC[C@@H](C3)N4)c3cnc(-c4cc(O)cc5ccccc45)c(F)c3n2)n1 [Example 8, 4-(4-((1R,5S)-3,8-diazabicyclo[3.2.1]octan-3-yl)-8-fluoro-2-((1-methyl-1H-pyrazol-3-yl)methoxy)pyrido[4,3-d]pyrimidin-7-yl)naphthalen-2-ol]	2140	1520
CCC1(N)CN(c2nc(N3C[C@H]4CC[C@@H](C3)N4)c3cnc(-c4cc(O)cc5ccccc45)c(F)c3n2)C1 [Example 126, 4-(2-(3-amino-3-ethylazetidin-1-yl)-4-((1R,5S)-3,8-diazabicyclo[3.2.1]octan-3-yl)-8-fluoropyrido[4,3-d]pyrimidin-7-yl)naphthalen-2-ol]	16.1	9.9
Cn1ccnc1CCOc1nc(N2C[C@H]3C[C@@H](O)[C@@H](C2)N3)c2cnc(-c3cccc4cccc(Cl)c34)c(F)c2n1 [Example 173, (1R,5R,6R)-3-(7-(8-chloronaphthalen-1-yl)-8-fluoro-2-(2-(1-methyl-1H-imidazol-2-yl)ethoxy)pyrido[4,3-d]pyrimidin-4-yl)-3,8-diazabicyclo[3.2.1]octan-6-ol]	117	99.2
Oc1cc(-c2ncc3c(N4C[C@H]5CC[C@@H](C4)N5)nc(OCC45CCCN4CCC5)nc3c2F)c2ccccc2c1 [Example 109, 4-(4-((1R,5S)-3,8-diazabicyclo[3.2.1]octan-3-yl)-8-fluoro-2-((tetrahydro-1H-pyrrolizin-7a(5H)-yl)methoxy)pyrido[4,3-d]pyrimidin-7-yl)naphthalen-2-ol bis(2,2,2-trifluoroacetate)]	> 500000	0.5
Oc1cc(-c2ncc3c(N4C[C@H]5CC[C@@H](C4)N5)nc(OCCN4CCOCC4)nc3c2F)c2ccccc2c1 [Example 25, 4-(4-((1R,5S)-3,8-diazabicyclo[3.2.1]octan-3-yl)-8-fluoro-2-(2-morpholinoethoxy)pyrido[4,3-d]pyrimidin-7-yl)naphthalen-2-ol]	270	338
CN1CCC[C@H]1COc1nc(N2C[C@H]3CC[C@@H](C2)N3)c2cnc(-c3cccc4ccc(F)c(Cl)c34)c(F)c2n1 [Example 44, 4-((1R,5S)-3,8-diazabicyclo[3.2.1]octan-3-yl)-7-(8-chloro-7-fluoronaphthalen-1-yl)-8-fluoro-2-(((S)-1-methylpyrrolidin-2-yl)methoxy)pyrido[4,3-d]pyrimidine]	31.7	33.7
Oc1cc(-c2ncc3c(N4C[C@H]5CC[C@@H](C4)N5)nc(OCC(F)(F)F)nc3c2F)c2ccccc2c1 [Example 48, 4-(4-((1R,5S)-3,8-diazabicyclo[3.2.1]octan-3-yl)-8-fluoro-2-(2,2,2-trifluoroethoxy)pyrido[4,3-d]pyrimidin-7-yl)naphthalen-2-ol]	931	434
COc1ccc(CCOc2nc(N3C[C@H]4CC[C@@H](C3)N4)c3cnc(-c4cccc5cccc(Cl)c45)c(F)c3n2)cn1 [Example 86, 4-((1R,5S)-3,8-diazabicyclo[3.2.1]octan-3-yl)-7-(8-chloronaphthalen-1-yl)-8-fluoro-2-(2-(6-methoxypyridin-3-yl)ethoxy)pyrido[4,3-d]pyrimidine]	528000	7920
OC[C@@H](O)COc1nc(N2C[C@H]3CC[C@@H](C2)N3)c2cnc(-c3cccc4cccc(Cl)c34)c(F)c2n1 [Example 56, (R)-3-((4-((1R,5S)-3,8-diazabicyclo[3.2.1]octan-3-yl)-7-(8-chloronaphthalen-1-yl)-8-fluoropyrido[4,3-d]pyrimidin-2-yl)oxy)propane-1,2-diol]	5170	5920
CO[C@@H]1CN2CCC[C@]2(COc2nc(N3C[C@H]4CC[C@@H](C3)N4)c3cnc(-c4cccc5cccc(Cl)c45)c(F)c3n2)C1 [Example 219, 4-((1R,5S)-3,8-diazabicyclo[3.2.1]octan-3-yl)-7-(8-chloronaphthalen-1-yl)-8-fluoro-2-((2-methoxytetrahydro-1H-pyrrolizin-7a(5H)-yl)methoxy)pyrido[4,3-d]pyrimidine bis-hydrochloride]	8.1	8.1
Fc1c(-c2cccc3cccc(Cl)c23)ncc2c(N3C[C@H]4CC[C@@H](C3)N4)nc(OCCc3cccnc3)nc12 [Example 113, 4-((1R,5S)-3,8-diazabicyclo[3.2.1]octan-3-yl)-7-(8-chloronaphthalen-1-yl)-8-fluoro-2-(2-(pyridin-3-yl)ethoxy)pyrido[4,3-d]pyrimidine]	2500	2870
Fc1c(-c2cccc3cccc(Cl)c23)ncc2c(N3C[C@H]4CC[C@@H](C3)N4)nc(OCC34CCCN3CCC4)nc12 [Example 45, 4-((1R,5S)-3,8-diazabicyclo[3.2.1]octan-3-yl)-7-(8-chloronaphthalen-1-yl)-8-fluoro-2-((tetrahydro-1H-pyrrolizin-7a(5H)-yl)methoxy)pyrido[4,3-d]pyrimidine]	5.1	5.5
Fc1c(-c2cccc3ccccc23)ncc2c(N3C[C@H]4CC[C@@H](C3)N4)nc(OC[C@@H]3CCCN3Cc3ccccc3)nc12 [Example 108, 2-(((S)-1-benzylpyrrolidin-2-yl)methoxy)-4-((1R,5S)-3,8-diazabicyclo[3.2.1]octan-3-yl)-8-fluoro-7-(naphthalen-1-yl)pyrido[4,3-d]pyrimidine]	63500	4840
C#Cc1cccc2cccc(-c3ncc4c(N5C[C@H]6CC[C@@H](C5)N6)nc(OCC56CCCN5CCC6)nc4c3F)c12 [Example 179, 4-((1R,5S)-3,8-diazabicyclo[3.2.1]octan-3-yl)-7-(8-ethynylnaphthalen-1-yl)-8-fluoro-2-((hexahydro-1H-pyrrolizin-7a-yl)methoxy)pyrido[4,3-d]pyrimidine]	0.1	1.1
